Reference: patent US9012431B2, “Boron-containing small molecules as anti-inflammatory agents” (Anacor Pharmaceuticals, Inc., priority 2008, dated 2015)

Tests used:
IL-5 = experiment: Cytokine assay, IL-5 release from PBMC; type: cell-based; settings: human PBMC, 20 ug/mL PHA, supernatant at 48 hours
Protocol: (§1) The ability of the compounds described herein to inhibit pro-inflammatory cytokines or phsophodiesterases were tested.
(§2) Frozen human peripheral blood mononucleocytes (PBMC) were thawed and centrifuged. Cryopreservation media was aspirated off of the cell pellet, and the cells were resuspended in fresh culture media (CM) comprising RPMI 1640 and 10% FBS in 96 well plates. Test article was dissolved in DMSO to form a 10 mM sample (DMSO, 100%). The 10 mM samples were diluted to 100 μM in CM (DMSO, 1%), then further diluted to 10, 1, 0.1, 0.01 μM in 200 μL of CM (n=3). […] IL-23 was assayed using a commercial ELISA kit (R&D Systems).

IFN-γ = experiment: Cytokine assay, IFN-γ release from PBMC; type: cell-based; settings: human PBMC, 20 ug/mL PHA; for IC50: supernatant at 24 hours
Protocol: as §1, §2

[1] = system: T1, PDE4 partially purified from human U-937 myeloid leukemia cells; experiment: PDE4 Assay (enzyme from U-937 cells, [3H]cAMP); type: biochemical; settings: PDE4 from U-937 cells, Tris buffer pH 7.5, 20 minutes at 25° C.
T1 construct: PDE4 partially purified from human U-937 myeloid leukemia cells was used
Protocol: Test article and/or vehicle was incubated with 0.2 mg enzyme and 1 mM cAMP containing 0.01 mM [3H]cAMP in Tris buffer pH 7.5 for 20 minutes at 25° C. The reaction was terminated by boiling for 2 minutes and the resulting AMP is converted to adenosine by addition of 10 mg/ml snake venom nucleotidase and further incubation at 37° C. for 10 minutes. Unhydrolyzed cAMP is bound to AG1-X2 resin, and remaining [3H]Adenosine in the aqueous phase is quantitated by scintillation counting.

TNF-α = experiment: Cytokine assay, TNF-α release from PBMC; type: cell-based; settings: 1 μg/mL LPS, supernatant at 24 hours
Protocol: as §1, §2

IL-10 = experiment: Cytokine assay, IL-10 release from PBMC; type: cell-based; settings: human PBMC, 20 ug/mL PHA, supernatant at 48 hours
Protocol: as §1, §2

IL-2 = experiment: Cytokine assay, IL-2 release from PBMC; type: cell-based; settings: human PBMC, 20 ug/mL PHA, supernatant at 24 hours
Protocol: as §1, §2

Row | Compound | IC50 (IL-5) [µM] | IC50 (IFN-γ) [µM] | IC50 [1] [µM] | IC50 (TNF-α; Homo sapiens, PBMC, 24 h) [µM] | IC50 (IL-10) [µM] | IC50 (IL-2) [µM] | IC50 (TNF-α; human PBMC) [µM] | inhibition at 10 µM (IFN-γ; 24 hours, 10 μM) [%]
1 | CCOC(=O)COc1cc(Oc2ccc3c(c2)COB3O)ccc1C#N [D38, [2-Cyano-5-(1-hydroxy-1,3-dihydro-benzo[c][1,2]oxaborol-5-yloxy)-phenoxy]-acetic acid ethyl ester] | < 1 | < 1 | < 1 | < 1 | 1 to 4 | < 1 | – | –
2 | N#Cc1c(Cl)cccc1Oc1ccc2c(c1)COB2O [D13, 5-(3-Chloro-2-cyanophenoxy)-1,3-dihydro-1-hydroxy-2,1-benzoxaborole] | 1 to 4 | 1 to 4 | 1 to 4 | 4 to 10 | 1 to 4 | 1 to 4 | – | –
3 | N#Cc1cnc(Oc2ccc3c(c2)COB3O)cc1OCCO [D119, 6-(1-Hydroxy-1,3-dihydro-benzo[c][1,2]oxaborol-5-yloxy)-4-(2-hydroxy-ethoxy)-nicotinonitrile] | < 1 | < 1 | < 1 | < 1 | < 1 | < 1 | – | –
4 | COc1ccc(Oc2ccc3c(c2)COB3O)cc1OC [D94, 5-(3,4-dimethoxyphenoxy)benzo[c][1,2]oxaborol-1 (3H)-ol] | 1 to 4 | 1 to 4 | < 1 | 1 to 4 | > 10 | 1 to 4 | – | –
5 | CCOC(=O)c1cc(F)c(Oc2ccc3c(c2)COB3O)c(F)c1 [D56, 5-(2,6-Difluoro-4-ethoxycarbonylphenoxy)-1-hydroxy-2,1-benzoxaborole] | > 10 | > 10 | 1 to 4 | > 10 | > 10 | 4 to 10 | – | –
6 | COc1ccc(C#N)c(Oc2ccc3c(c2)COB3O)n1 [D47, 2-(1-Hydroxy-1,3-dihydro-benzo[c][1,2]oxaborol-5-yloxy)-6-methoxy-nicotinonitrile] | < 1 | < 1 | < 1 | < 1 | 1 to 4 | < 1 | – | –
7 | O=C1NC(=O)c2cc(Oc3ccc4c(c3)COB4O)ccc21 [D9, 5-(1,3-Dihydro-1-hydroxy-2,1-benzoxaborol-5-yloxy)isoindoline-1,3-dione] | < 1 | < 1 | < 1 | < 1 | < 1 | < 1 | – | –
8 | N#Cc1ccc(Oc2ccc3c(c2)COB3O)nc1OCC(F)(F)F [D125, 6-(1-Hydroxy-1,3-dihydro-benzo[c][1,2]oxaborol-5-yloxy)-2-(2,2,2-trifluoro-ethoxy)-nicotinonitrile] | < 1 | < 1 | < 1 | < 1 | < 1 | < 1 | – | –
9 | CCS(=O)(=O)c1ccc(Oc2ccc3c(c2)COB3O)cc1 [D105, 5-(4-(ethylsulfonyl)phenoxy)benzo[c][1,2]oxaborol-1 (3H)-ol] | 4 to 10 | 1 to 4 | 1 to 4 | 1 to 4 | 1 to 4 | 1 to 4 | – | –
10 | CC(C)(C)OC(=O)COc1cc(C#N)ccc1Oc1ccc2c(c1)COB2O [D30, 5-[4-Cyano-2-(tert-butoxycarbonylmethoxy)phenoxy], 3-dihydro-1-hydroxy-2,1-benzoxaborole] | < 1 | < 1 | < 1 | < 1 | < 1 | < 1 | – | –
11 | Cc1cc(C#N)ccc1Oc1ccc2c(c1)COB2O [D85, 3-methyl-4-(1-hydroxy-1,3-dihydrobenzo[c][1,2]oxaborol-5-yloxy)benzonitrile] | < 1 | < 1 | < 1 | < 1 | 1 to 4 | < 1 | – | –
12 | CC(C)OC(=O)c1ccc(Oc2ccc3c(c2)COB3O)c(F)c1 [D55, 5-(2-Fluoro-4-isopropyloxycarbonylphenoxy)-1-hydroxy-2,1-benzoxaborole] | 1 to 4 | < 1 | < 1 | 4 to 10 | 4 to 10 | < 1 | – | –
13 | CCCOC(=O)c1ccc(Oc2ccc3c(c2)COB3O)nc1 [D66, n-Propyl 6-(1-hydroxy-1,3-dihydrobenzo[c][1,2]oxaborol-5-yloxy)nicotinate] | < 1 | < 1 | < 1 | < 1 | < 1 | < 1 | – | –
14 | CC(=O)Oc1cc(Oc2ccc3c(c2)COB3O)ccc1C#N [D11, 5-(4-Cyano-3-acetoxyphenoxy)-1,3-dihydro-1-hydroxy-2,1-benzoxaborole] | 4 to 10 | 1 to 4 | < 1 | < 1 | 1 to 4 | 1 to 4 | – | –
15 | N#Cc1ccc(Oc2ccc3c(c2)COB3O)nc1N [D130, 2-amino-6-(1-hydroxy-1,3-dihydro-benzo[c][1,2]oxaborol-5-yloxy)-nicotinonitrile] | < 1 | < 1 | < 1 | < 1 | < 1 | < 1 | – | –
16 | CCN(CC)C(=O)c1ccc(Oc2ccc3c(c2)COB3O)nc1 [D62, N,N-diethyl-6-(1-hydroxy-1,3-dihydrobenzo[c][1,2]-5-yloxy) nicotinamide] | 1 to 4 | < 1 | 1 to 4 | < 1 | 1 to 4 | < 1 | – | –
17 | CC(C)OC(=O)c1ccc(Oc2ccc3c(c2)COB3O)cc1 [D74, 4-(1-Hydroxy-1,3-dihydro-benzo[c][1,2]oxaborol-5-yloxy)-benzoic acid isopropyl ester] | 1 to 4 | < 1 | < 1 | 1 to 4 | 1 to 4 | < 1 | – | –
18 | N#Cc1ccc(Oc2ccc3c(c2)COB3O)nc1 [D82, 6-(1-hydroxy-1,3-dihydrobenzo[c][1,2]oxaborol-5-yloxy)nicotinonitrile] | 1 to 4 | < 1 | < 1 | – | < 1 | < 1 | < 1 | –
19 | COc1ccc(Oc2ccc3c(c2)B(O)OC3)cc1 [C31, 6-(4-Methoxyphenoxy)-1,3-dihydro-1-hydroxy-2,1-benzoxaborole] | > 10 | – | 4 to 10 | > 10 | > 10 | > 10 | – | 30 to 60
20 | CC(C)S(=O)(=O)c1ccc(Oc2ccc3c(c2)COB3O)cc1 [D104, 5-(4-(isopropylsulfonyl)phenoxy)benzo[c][1,2]oxaborol-1 (3H)-ol] | 4 to 10 | 1 to 4 | < 1 | 1 to 4 | 4 to 10 | 1 to 4 | – | –
21 | Cc1cc(Oc2ccc3c(c2)COB3O)ccc1C#N [D3, 5-(4-Cyano-3-methylphenoxy)-1,3-dihydro-1-hydroxy-2,1-benzoxaborole] | < 1 | < 1 | < 1 | < 1 | > 10 | < 1 | – | –
22 | N#Cc1cnc(Oc2ccc3c(c2)COB3O)cc1OCCOC1CCCCO1 (stereo not drawn) [D118, 6-(1-Hydroxy-1,3-dihydro-benzo[c][1,2]oxaborol-5-yloxy)-4-[2-(tetrahydro-pyran-2-yloxy)-ethoxy]-nicotinonitrile] | < 1 | < 1 | < 1 | < 1 | 1 to 4 | < 1 | – | –
